Measured values published in patent publication US10456374B2, “Pyrrolidone carboxylic acid (PCA) for ophthalmic use” (Laboratori Baldacci S.p.A., priority 2015, dated 2019).

What was measured:
[1] = Ex vivo transcorneal permeation through isolated rabbit cornea; type: in vitro ADME; settings: donor RBB pH 7.6 with 0.02% w/w PCA and 0.04% w/w hyaluronic acid, 32° C.
Description: Evaluation of PCA Ex Vivo Transcorneal Permeation of a Composition According to Example 2 Through Isolated Rabbit Cornea.
For the determination of ex vivo corneal permeability, rabbit corneas obtained after proptosis of the eye, performed immediately after the animal euthanization, were used. The rabbits were New Zealand albino rabbits (n=3) and were euthanized by intravenous injection of Pentothal sodium (Farmaceutici Gellini, Aprilia, Italy). After the eyes were proptosed, the cornea, with 2 mm of sclera, was immediately excised and mounted in a perfusion apparatus. During the preparation, particular attention was paid to prevent the exfoliation of the corneal epithelium and its contact with any solid surfaces. […]
After the permeation experiment start, at appropriate intervals of time (15, 30, 60, 90, 120, 180 and 240 minutes), 0.50 mL of solution were withdrawn from the receiving compartment (endothelial side) and replaced with fresh RBB. At the end of the experiment, the entire donor phase was collected and submitted to quantitative determination of the active ingredient in a similar manner as provided for the samples of the receiving phase.
Quantitative analysis of PCA was performed by HPLC using a C18 reverse phase column C18 (Bondclone 10 μm 300×3.9 mm), and the eluent was a 98:2 mixture buffer solution to acetonitrile. […]

[2] = Residence in the ocular tissue; settings: stated in the description, no test described
[3] = Pescina et al, 2015; cited from earlier work

Row | Papp at 240 min, 0.02 % w/w ([1]; New Zealand albino, isolated rabbit cornea, read-out: PCA corneal permeability) [×10⁻⁶ cm/s] | PCA found in the receiving compartment, of the amount present in the donor compartment ([1]; end of the experiment (240 minutes)) [% w/w] | Period of time PCA remains in the ocular tissue [2] | SMILES | permeability through porcine cornea [3]
1 | 3.95 | 0.051 | greater than 3 hours | O=C1CCC(C(=O)O)N1 (stereo not shown) [PCA, Pyrrolidone carboxylic acid] | 
2 |  |  |  | O=C1OC2(c3ccc(O)cc3Oc3cc(O)ccc32)c2ccccc21 [sodium fluorescein] | 0.05 10^−5 cm/s
